Results published in patent publication US11076595B2, “1-(n,n-disubstituted carbamoyl) 4-(substituted sulfonyl)triazolin-5-one derivative, 4-(n,n-disubstituted carbamoyl) 1-(substituted sulfonyl)triazolin-5-one derivative, and herbicide containing said derivative as active ingredient” (HOKKO CHEMICAL INDUSTRY CO., LTD., priority 2017, dated 2021).

Key:
Assay type in all cases: in vivo
Lindernia pyxidaria [1] = assay: Test Example 1: herbicidal effect test by soil treatment in paddy field; conditions: 120 g/10a, paddy soil treatment just after sowing, 14 days after treatment
From the text: (§1) A Wagner pot having an area of 1/10000 are was filled with paddy field soil and after adding water, a chemical fertilizer (N:P:K=17:17:17) was mixed, followed by puddling. Thereafter, 30 grains of each of Echinochloa crus-galli, broad-leaved weed (Lindernia pyxidaria and Monochoria vaginalis) and Scirpus juncoides seeds were sown to a depth of 0 to 1 cm. Immediately after the sowing, the pot was flooded, and the depth of water was kept at about 3 cm. The pot was subsequently managed in a glass greenhouse. Just after that, an emulsifiable concentrate prepared according to Formulation Example 5 by using the compound shown in Table 5 below was diluted with water, and a predetermined amount of the water-diluted formulation was added dropwise. The application rate of the active ingredient, by conversion, corresponded to 120 g per 10 are.
(§2) This test was performed with two replications per one formulation concentration plot, and 14 days after the formulation treatments, the weed suppression rate (%) was determined according to the following equation (Math. 1). Weed suppression rate (%)=(1−an average dry weight (g) of plants in treated plots/an average dry weight (g) of plants in untreated plots)×100 [Math. 1]

Monochoria vaginalis [2] = assay: as above; conditions: 120 g/10a, paddy soil treatment just after sowing, 14 days after treatment
From the text: as §1, §2

Echinochloa crus-galli [3] = assay: as above; conditions: 120 g/10a, paddy soil treatment just after sowing, 14 days after treatment
From the text: as §1, §2

Scirpus juncoides [4] = assay: as above; conditions: 120 g/10a, paddy soil treatment just after sowing, 14 days after treatment
From the text: as §1, §2

Lindernia pyxidaria [5] = assay: Test Example 2: herbicidal effect test by treatment during growing period in paddy field; conditions: treatment 7 days after sowing, 120 g/10a, evaluated 14 days after treatment
Method: as §2
as §1, with “greenhouse. Seven days” for “greenhouse. Just”, “after sowing,” for “after that,”, “Table 6” for “Table 5”, “are. The test was performed with two replications per one formulation concentration plot, and 14 days after the formulation treatments, the weed suppression rate (%) was determined according to the equation (Math. 1).” for “are.”

Monochoria vaginalis [6] = assay: as above; conditions: treatment 7 days after sowing, 120 g/10a, evaluated 14 days after treatment
Method: as §2
as §1, with “greenhouse. Seven days” for “greenhouse. Just”, “after sowing,” for “after that,”, “Table 6” for “Table 5”, “are. The test was performed with two replications per one formulation concentration plot, and 14 days after the formulation treatments, the weed suppression rate (%) was determined according to the equation (Math. 1).” for “are.”

Echinochloa crus-galli [7] = assay: as above; conditions: treatment 7 days after sowing, 120 g/10a, evaluated 14 days after treatment
Method: as §2
as §1, with “greenhouse. Seven days” for “greenhouse. Just”, “after sowing,” for “after that,”, “Table 6” for “Table 5”, “are. The test was performed with two replications per one formulation concentration plot, and 14 days after the formulation treatments, the weed suppression rate (%) was determined according to the equation (Math. 1).” for “are.”

Scirpus juncoides [8] = assay: as above; conditions: treatment 7 days after sowing, 120 g/10a, evaluated 14 days after treatment
Method: as §2
as §1, with “greenhouse. Seven days” for “greenhouse. Just”, “after sowing,” for “after that,”, “Table 6” for “Table 5”, “are. The test was performed with two replications per one formulation concentration plot, and 14 days after the formulation treatments, the weed suppression rate (%) was determined according to the equation (Math. 1).” for “are.”

Chenopodium album [9] = assay: Test Example 14: herbicidal effect test by foliage treatment in upland field; conditions: 7 days after sowing, 120 g/10a, 14 days after treatment
Summary of the method: (§3)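 Post-sowing spray at day 7, 120 g a.i./10 are in 100 L water/10 are; alluvial soil pots, duplicate plots; endpoint day 14, % suppression from dry weight relative to untreated.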

crabgrass [10] = assay: as above; conditions: 7 days after sowing, 120 g/10a, 14 days after treatment
Summary of the method: as §3

Amaranthus viridis [11] = assay: as above; conditions: 7 days after sowing, 120 g/10a, 14 days after treatment
Summary of the method: as §3

Echinochloa crus-galli [12] = assay: as above; conditions: 7 days after sowing, 120 g/10a, 14 days after treatment
Summary of the method: as §3

Lindernia pyxidaria [13] = assay: Test Example 11: herbicidal effect test by soil treatment in paddy field; conditions: 120 g/10a active ingredient, 14 days after treatment
Summary of the method: (§4)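 Weed suppression rate (%) was calculated as (1 − mean treated dry weight / mean untreated dry weight) × 100 at 14 days after treatment, two replicates per plot. Seeds were sown at 0–1 cm in flooded (about 3 cm) puddled paddy soil and treated immediately at 120 g active ingredient per 10 are.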

Monochoria vaginalis [14] = assay: as above; conditions: 120 g/10a active ingredient, 14 days after treatment
Summary of the method: as §4

Echinochloa crus-galli [15] = assay: as above; conditions: 120 g/10a active ingredient, 14 days after treatment
Summary of the method: as §4

Scirpus juncoides [16] = assay: as above; conditions: 120 g/10a active ingredient, 14 days after treatment
Summary of the method: as §4

Chenopodium album [17] = assay: Test Example 13: herbicidal effect test by soil treatment in upland field; conditions: 120 g/10a, 14 days after treatment
Summary of the method: (§5)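 Suppression rate (%) is calculated from mean plant dry weight in treated versus untreated plots, 14 days after treatment, with duplicate plots per concentration. Seeds (20 per species) are mixed into the surface centimetre of alluvial soil, and the diluted emulsifiable concentrate is sprayed onto the soil the following day at 120 g a.i. per 10 are.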

crabgrass [18] = assay: as above; conditions: 120 g/10a, 14 days after treatment
Summary of the method: as §5

Amaranthus viridis [19] = assay: as above; conditions: 120 g/10a, 14 days after treatment
Summary of the method: as §5

Echinochloa crus-galli [20] = assay: as above; conditions: 120 g/10a, 14 days after treatment
Summary of the method: as §5

Lindernia pyxidaria [21] = assay: Test Example 12: herbicidal effect test by treatment during growing period in paddy field; conditions: 120 g/10a; treatment seven days after sowing in flooded paddy pot; assessed 14 days after treatment
Summary of the method: (§6)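 Puddled paddy soil in Wagner pots, 30 seeds per species sown 0-1 cm deep, flooded to about 3 cm in a greenhouse. Seven days after sowing, water-diluted emulsifiable concentrate was dripped in at 120 g active ingredient per 10 are. Suppression (%) from dry weight versus untreated at 14 days, two replicates.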

Monochoria vaginalis [22] = assay: as above; conditions: 120 g/10a; treatment seven days after sowing in flooded paddy pot; assessed 14 days after treatment
Summary of the method: as §6

Echinochloa crus-galli [23] = assay: as above; conditions: 120 g/10a; treatment seven days after sowing in flooded paddy pot; assessed 14 days after treatment
Summary of the method: as §6

Scirpus juncoides [24] = assay: as above; conditions: 120 g/10a; treatment seven days after sowing in flooded paddy pot; assessed 14 days after treatment
Summary of the method: as §6

SMILES | weed suppression rate, Lindemia pyxidaria (Lindernia pyxidaria [1]) [%] | weed suppression rate, Monochoria vaginalis (Monochoria vaginalis [2]) [%] | weed suppression rate, Echinochloa crus-galli (Echinochloa crus-galli [3]) [%] | weed suppression rate, Scirpus juncoides (Scirpus juncoides [4]) [%] | herbicidal effect, Chenopodium album (Chenopodium album [9]) [%] | herbicidal effect, Crabgrass (crabgrass [10]) [%] | herbicidal effect, Amaranthus viridis (Amaranthus viridis [11]) [%] | herbicidal effect, Echinochloa crus-galli (Echinochloa crus-galli [12]) [%] | Weed suppression rate (%) Lindemia pyxidaria (Lindernia pyxidaria [13]) [%] | Weed suppression rate (%) Monochoria vaginalis (Monochoria vaginalis [14]) [%] | Weed suppression rate (%) Echinochloa crus-galli (Echinochloa crus-galli [15]) [%] | Weed suppression rate (%) Scirpus juncoides (Scirpus juncoides [16]) [%] | herbicidal effect, Chenopodium album (Chenopodium album [17]) [%] | herbicidal effect, Crabgrass (crabgrass [18]) [%] | herbicidal effect, Amaranthus viridis (Amaranthus viridis [19]) [%] | herbicidal effect, Echinochloa crus-galli (Echinochloa crus-galli [20]) [%] | Weed suppression rate (%) Lindemia pyxidaria (Lindernia pyxidaria [21]) [%] | Weed suppression rate (%) Monochoria vaginalis (Monochoria vaginalis [22]) [%] | Weed suppression rate (%) Echinochloa crus-galli (Echinochloa crus-galli [23]) [%] | Weed suppression rate (%) Scirpus juncoides (Scirpus juncoides [24]) [%] | further results
CC(C)N(C(=O)n1ncn(S(=O)(=O)C2CCOC2)c1=O)c1ccc(F)cc1F (racemic) [Compound 1-1161] | 80 | 80 | 90 | 90 |  |  |  |  |  |  |  |  |  |  |  |  |  |  |  |  | weed suppression rate, Lindemia pyxidaria (Lindernia pyxidaria [5]): 80%; weed suppression rate, Monochoria vaginalis (Monochoria vaginalis [6]): 80%; weed suppression rate, Echinochloa crus-galli (Echinochloa crus-galli [7]): 90%; weed suppression rate, Scirpus juncoides (Scirpus juncoides [8]): 90%
CC(C)N(C(=O)n1ncn(S(=O)(=O)C(C)C)c1=O)c1ccccc1F [Compound 1-55] | 90 | 90 | 90 | 90 |  |  |  |  |  |  |  |  |  |  |  |  |  |  |  |  | weed suppression rate, Lindemia pyxidaria (Lindernia pyxidaria [5]): 90%; weed suppression rate, Monochoria vaginalis (Monochoria vaginalis [6]): 90%; weed suppression rate, Echinochloa crus-galli (Echinochloa crus-galli [7]): 90%; weed suppression rate, Scirpus juncoides (Scirpus juncoides [8]): 90%
CC(C)N(C(=O)n1ncn(S(=O)(=O)C(C)C)c1=O)c1ccc(Cl)cc1F [Compound 1-73] | 100 | 90 | 100 | 80 |  |  |  |  |  |  |  |  |  |  |  |  |  |  |  |  | weed suppression rate, Lindemia pyxidaria (Lindernia pyxidaria [5]): 80%; weed suppression rate, Monochoria vaginalis (Monochoria vaginalis [6]): 90%; weed suppression rate, Echinochloa crus-galli (Echinochloa crus-galli [7]): 100%; weed suppression rate, Scirpus juncoides (Scirpus juncoides [8]): 100%
CC(C)N(C(=O)n1ncn(S(=O)(=O)c2cccs2)c1=O)c1ccc(F)cc1F [Compound 1-1060] | 80 | 80 | 90 | 90 |  |  |  |  |  |  |  |  |  |  |  |  |  |  |  |  | 
CC(C)N(C(=O)n1cnn(S(=O)(=O)C2CCOCC2)c1=O)c1ccc(F)cc1F [Compound 11-1109] |  |  |  |  | 80 | 90 | 90 | 80 | 80 | 80 | 90 | 90 | 100 | 100 | 100 | 100 | 80 | 80 | 90 | 90 | 
CCS(=O)(=O)n1ncn(C(=O)N(c2cccc(F)c2F)C(C)C)c1=O [Compound 11-1148] |  |  |  |  | 80 | 100 | 70 | 100 | 100 | 90 | 100 | 100 | 90 | 100 | 100 | 100 | 90 | 90 | 100 | 100 | 
COc1ccc(S(=O)(=O)n2ncn(C(=O)N(c3cccc(F)c3F)C(C)C)c2=O)cc1 [Compound 11-1149] |  |  |  |  | 70 | 80 | 30 | 70 | 100 | 100 | 100 | 100 | 30 | 70 | 30 | 70 | 80 | 100 | 100 | 100 | 
CCS(=O)(=O)n1ncn(C(=O)N(c2c(F)cccc2F)C(C)C)c1=O [Compound 11-1150] |  |  |  |  | 60 | 100 | 50 | 100 | 100 | 70 | 100 | 90 | 80 | 100 | 90 | 100 | 100 | 90 | 100 | 60 | 
CCS(=O)(=O)n1ncn(C(=O)N(c2c(F)cc(F)cc2F)C(C)C)c1=O [Compound 11-1154] |  |  |  |  | 80 | 100 | 30 | 100 | 100 | 100 | 100 | 100 | 80 | 100 | 90 | 100 | 80 | 90 | 100 | 80 | 
COc1ccc(S(=O)(=O)n2ncn(C(=O)N(c3c(F)cc(F)cc3F)C(C)C)c2=O)cc1 [Compound 11-1155] |  |  |  |  | 60 | 100 | 30 | 90 | 100 | 80 | 100 | 100 | 30 | 90 | 30 | 90 | 80 | 90 | 100 | 90 | 
